Assay results as given in PMC3931418 (Nature, 2014).

Target: BRIL-δOR(ΔN/ΔC) (Sf9) (Homo sapiens, UniProt P41143, P37S)
Format: binding

Chain of BRIL-δOR(ΔN/ΔC) (Sf9) (P41143 36-338 P37S): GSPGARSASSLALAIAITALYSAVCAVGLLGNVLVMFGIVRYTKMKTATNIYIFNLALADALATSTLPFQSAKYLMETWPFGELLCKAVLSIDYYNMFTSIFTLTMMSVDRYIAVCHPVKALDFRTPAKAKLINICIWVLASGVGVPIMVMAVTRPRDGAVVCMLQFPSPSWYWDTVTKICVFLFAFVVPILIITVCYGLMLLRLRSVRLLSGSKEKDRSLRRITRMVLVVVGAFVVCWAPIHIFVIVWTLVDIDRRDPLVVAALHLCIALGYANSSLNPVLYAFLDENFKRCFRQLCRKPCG

## [Na+] [sodium]
  Hill Coefficient: 0.79 ± 0.02
  Na+ pKB ± SEM: 1.79 ± 0.11
  pα ± SEM: 0.86 ± 0.05
  α: 0.138
read-out: Na+ KB
  Kb: 15.9 mM
